Test: xn = mol fraction of the nth substance listed
Conditions: Liquid, Vibrating wire viscometry

CCC(C)O (centres undefined) [butan-2-ol] + CC(C)CC(C)(C)C
viscosity [mPa·s]
Conditions	x1 = 0.2999	x1 = 0.5001	x1 = 0.7996	x1 = 1
313.15 K, 120000 kPa	–	1.74	3.051	5.179
313.15 K, 140000 kPa	1.598	1.973	3.552	5.933
333.15 K, 100 kPa	0.3574	0.4132	0.6203	1.007
333.15 K, 1000 kPa	0.3614	0.4166	0.631	1.023
333.15 K, 5000 kPa	0.3814	0.4455	0.6669	1.078
333.15 K, 10000 kPa	0.4083	0.4682	0.7064	1.133
333.15 K, 20000 kPa	0.4584	0.5293	0.7854	1.254
333.15 K, 30000 kPa	0.5124	0.6041	0.8701	1.372
333.15 K, 40000 kPa	0.5669	0.6689	0.9706	1.491
333.15 K, 50000 kPa	0.6217	0.7304	1.07	1.624
333.15 K, 60000 kPa	0.6795	0.7967	1.172	1.759
333.15 K, 70000 kPa	0.7435	0.8604	1.271	1.905
333.15 K, 80000 kPa	0.8018	0.9339	1.387	2.081
333.15 K, 100000 kPa	0.9315	1.089	1.613	2.427
333.15 K, 120000 kPa	1.057	1.236	1.831	2.716
333.15 K, 140000 kPa	1.196	1.408	2.083	3.099
353.15 K, 100 kPa	0.2785	0.3272	0.4165	0.6198
353.15 K, 1000 kPa	0.2825	0.333	0.4213	0.6273
353.15 K, 5000 kPa	0.2981	0.349	0.4405	0.6577
353.15 K, 10000 kPa	0.3222	0.373	0.4671	0.6999
353.15 K, 20000 kPa	0.3642	0.4151	0.5216	0.7717
353.15 K, 30000 kPa	0.4069	0.4619	0.5729	0.8354
353.15 K, 40000 kPa	0.4472	0.5088	0.6309	0.9088
353.15 K, 50000 kPa	0.4904	0.5576	0.6907	0.9898
353.15 K, 60000 kPa	0.54	0.6147	0.7546	1.07
353.15 K, 70000 kPa	0.5886	0.6678	0.8214	1.151
353.15 K, 80000 kPa	0.6326	0.7221	0.8973	1.242
353.15 K, 100000 kPa	0.7318	0.8402	1.046	1.444
353.15 K, 120000 kPa	0.8276	0.9461	1.206	1.644
353.15 K, 140000 kPa	0.9377	1.069	1.367	1.845
